# Experimental data: patent US8299048B2, “Hexahydrocyclopentyl[f]indazole sulfonamides and derivatives thereof as selective glucocorticoid receptor modulators” (Merck Sharp & Dohme Corp., priority 2008, dated 2012)
# Biological target: T1, glucocorticoid receptor (Homo sapiens, UniProt P04150)
# T1 construct: endogenous in cells
# T1 sequence (P04150 1-777): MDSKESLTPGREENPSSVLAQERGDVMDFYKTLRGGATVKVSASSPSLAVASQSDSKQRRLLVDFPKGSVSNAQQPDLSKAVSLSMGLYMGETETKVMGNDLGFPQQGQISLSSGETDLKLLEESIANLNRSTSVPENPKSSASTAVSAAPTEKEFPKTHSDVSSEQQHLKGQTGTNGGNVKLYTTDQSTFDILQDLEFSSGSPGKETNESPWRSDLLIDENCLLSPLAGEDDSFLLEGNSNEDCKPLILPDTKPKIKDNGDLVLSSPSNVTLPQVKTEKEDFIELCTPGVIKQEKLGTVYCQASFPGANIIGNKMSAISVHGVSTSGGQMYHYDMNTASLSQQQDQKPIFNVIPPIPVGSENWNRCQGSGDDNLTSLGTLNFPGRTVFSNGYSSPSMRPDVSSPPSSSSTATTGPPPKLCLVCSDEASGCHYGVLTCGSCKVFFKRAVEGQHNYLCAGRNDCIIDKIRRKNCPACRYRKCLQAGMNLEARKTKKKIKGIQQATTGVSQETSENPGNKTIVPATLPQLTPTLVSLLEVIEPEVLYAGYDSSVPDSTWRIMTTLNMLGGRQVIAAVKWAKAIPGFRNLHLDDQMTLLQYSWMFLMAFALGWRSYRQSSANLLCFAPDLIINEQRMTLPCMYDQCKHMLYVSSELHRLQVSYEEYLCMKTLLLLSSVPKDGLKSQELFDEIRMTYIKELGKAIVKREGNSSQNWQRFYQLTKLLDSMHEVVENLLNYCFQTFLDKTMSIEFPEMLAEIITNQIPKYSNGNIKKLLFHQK
# Test: Ligand binding assay (GR BIND)
# Procedure: • Materials: • Binding Buffer: TEGM (10 mM Tris-HCl, 1 mM EDTA, 10% glycerol, 1 mM beta-mecaptoethanol, 10 mM Sodium Molybdate, pH 7.2) • 50% HAP Slurry: Calbiochem Hydroxylapatite, Fast Flow, in 10 mM Tris, pH 8.0 and 1 mM EDTA. • Wash Buffer: 40 mM Tris, pH7.5, 100 mM KCl, 1 mM EDTA and 1 mM EGTA.
# Phenol red-free Trypsin-EDTA is diluted in the same PBS1:10. The cell layers are rinsed with 1× Trypsin, extra Trypsin is poured out, and the cell layers are incubated at 37° C. for ˜2 min. The flask is tapped and checked for signs of cell detachment. Once the cells begin to slide off the flask, the complete media is added. The cells are counted at this point, then diluted to the appropriate concentration and split into flasks or dishes for further culturing (Usually 1:3 to 1:6 dilution).
# When the cells are 70 to 85% confluent, they are detached as described above, and collected by centrifuging at 1000 g for 10 minutes at 4° C. The cell pellet is washed twice with TEGM (10 mM Tris-HCl, 1 mM EDTA, 10% glycerol, 1 mM beta-mercaptoethanol, 10 mM Sodium Molybdate, pH 7.2). After the final wash, the cells are resuspended in TEGM at a concentration of 10^7 cells/mL. The cell suspension is snap frozen in liquid nitrogen or ethanol/dry ice bath and transferred to −80° C. freezer on dry ice. Before setting up the binding assay, the frozen samples are left on ice-water to just thaw (˜1 hr). Then the samples are centrifuged at 12,500 g to 20,000 g for 30 min at 4° C. The supernatant is used to set-up assay right away. If using 50 μL of supernatant, the test compound can be prepared in 50 μL of the TEGM buffer.
# 1×TEGM buffer is prepared, and the isotope-containing assay mixture is prepared in the following order: EtOH (2% final concentration in reaction), 3H-DEX (Amersham Biosciences) and 1×TEGM. [e.g. For 100 samples, 200 μL (100×2) of EtOH+4.25 μL of 1:10 ^3H—Dex stock+2300 μL (100×23) 1×TEGM]. The compound is serially diluted, e.g., if starting final conc. is 1 μM, and the compound is in 25 μL of solution, for duplicate samples, 75 μL of 4×1 μM solution is made and 3 μL of 100 μM is added to 72 μL of buffer, and 1:5 serial dilution.
# 25 μL of ^3H-DEX (6 nM) trace and 25 μL compound solution are first mixed together, followed by addition of 50 μL receptor solution. The reaction is gently mixed, spun briefly at about 200 rpm and incubated at 4° C. overnight. 100 μL of 50% HAP slurry is prepared and added to the incubated reaction which is then vortexed and incubated on ice for 5 to 10 minutes. The reaction mixture is vortexed twice more to resuspend HAP while incubating reaction. The samples in 96-well format are then washed in wash buffer using The FilterMate™ Universal Harvester plate washer (Packard). The washing process transfers HAP pellet containing ligand-bound expressed receptor to Unifilter-96 GF/B filter plate (Packard). The HAP pellet on the filter plate is incubated with 50 μL of MICROSCINT (Packard) scintillint for 30 minutes before being counted on the TopCount microscintillation counter (Packard). […] are calculated using DEX as a reference.
row,SMILES,Ki
1,"C[C@]12Cc3cnn(-c4ccc(F)cc4)c3C=C1CC[C@@H]2CN(CCc1ccccn1)S(=O)(=O)CC(F)(F)F [Example 128, 2,2,2-trifluoro-N-{[(4αR,5S)-1-(4-fluorophenyl)-4α-methyl-1,4,4α,5,6,7-hexahydrocyclopenta[f]indazol-5-yl]methyl}-N-(2-pyridin-2-ylethyl)ethanesulfonamide]",0.8 nM
2,"C[C@]12Cc3cnn(-c4ccc(F)cc4)c3C=C1CC[C@@H]2CN(CCc1ccccc1F)S(=O)(=O)Cc1ccccc1Cl [Example 107, 1-(2-chlorophenyl)-N-[2-(2-fluorophenyl)ethyl]-N-{[(4αR,5S)-1-(4-fluorophenyl)-4α-methyl-1,4,4α,5,6,7-hexahydrocyclopenta[f]indazol-5-yl]methyl}methanesulfonamide]",1.8 nM
3,"C[C@]12Cc3cnn(-c4ccc(F)cc4)c3C=C1CC[C@@H]2CN(CCc1ccccc1F)S(=O)(=O)CCN1C(=O)c2ccccc2C1=O [Example 121, 2-(1,3-dioxo-1,3-dihydro-2H-isoindol-2-yl)-N-[2-(2-fluorophenyl)ethyl]-N-{[(4αR,5S)-1-(4-fluorophenyl)-4α-methyl-1,4,4α,5,6,7-hexahydrocyclopenta[f]indazol-5-yl]methyl}ethanesulfonamide]",5.3 nM
4,"C[C@]12Cc3cnn(-c4ccc(F)cc4)c3C=C1CC[C@@H]2CN(CC(O)C(F)(F)F)S(=O)(=O)Cc1ccccc1C(=O)O (stereo partly drawn) [Example 164, 2-({[{[(4αR,5S)-1-(4-fluorophenyl)-4α-methyl-1,4,4α,5,6,7-hexahydrocyclopenta[f]indazol-5-yl]methyl}(3,3,3-trifluoro-2-hydroxypropyl)amino]sulfonyl}methyl)benzoic acid]",3.2 nM
5,"CC(C)CS(=O)(=O)N(CCc1ccccc1F)C[C@H]1CCC2=Cc3c(cnn3-c3ccc(F)cc3)C[C@@]21C [Example 103, N-[2-(2-fluorophenyl)ethyl]-N-{[(4αR,5S)-1-(4-fluorophenyl)-4α-methyl-1,4,4α,5,6,7-hexahydrocyclopenta[f]indazol-5-yl]methyl}-2-methylpropane-1-sulfonamide]",1.7 nM
6,"C[C@]12Cc3cnn(-c4ccccc4)c3C=C1CC[C@@H]2CN(CCc1ccccn1)S(=O)(=O)CC(F)(F)F [Example 138, 2,2,2-trifluoro-N-{[(4αR,5S)-4α-methyl-1-phenyl-1,4,4α,5,6,7-hexahydrocyclopenta[f]indazol-5-yl]methyl}-N-(2-pyridin-2-ylethyl)ethanesulfonamide]",1.2 nM
7,"C[C@]12Cc3cnn(-c4ccc(F)cc4)c3C=C1CC[C@@H]2CN(CC(O)c1cccnc1)S(=O)(=O)CC(F)(F)F (stereo partly drawn) [Example 143, 2,2,2-trifluoro-N-{[(4αR,5S)-1-(4-fluorophenyl)-4α-methyl-1,4,4α,5,6,7-hexahydrocyclopenta[f]indazol-5-yl]methyl}-N-(2-hydroxy-2-pyridin-3-ylethyl)ethanesulfonamide]",13.3 nM
8,"C[C@@H](CN(C[C@H]1CCC2=Cc3c(cnn3-c3ccc(F)cc3)C[C@@]21C)S(=O)(=O)CC(F)(F)F)OS(=O)(=O)CC(F)(F)F [Example 114, (1S)-2-{{[(4αR,5S)-1-(4-fluorophenyl)-4α-methyl-1,4,4α,5,6,7-hexahydrocyclopenta[f]indazol-5-yl]methyl}[(2,2,2-trifluoroethyl)sulfonyl]amino}-1-methylethyl 2,2,2-trifluoroethanesulfonate]",0.8 nM
9,"Cc1noc(C)c1S(=O)(=O)N(C[C@H]1CCC2=Cc3c(cnn3-c3ccc(F)cc3)C[C@@]21C)C[C@@H](C)O [Example 168, N-{[(4αR,5S)-1-(4-fluorophenyl)-4α-methyl-1,4,4α,5,6,7-hexahydrocyclopenta[f]indazol-5-yl]methyl}-N-[(2R)-2-hydroxypropyl]-3,5-dimethylisoxazole-4-sulfonamide]",1.5 nM
10,"C[C@]12Cc3cnn(-c4ccccc4)c3C=C1CC[C@@H]2CN(CCc1ccccc1O)S(=O)(=O)Cc1cccnc1 [Example 141, N-[2-(2-hydroxyphenyl)ethyl]-N-{[(4αR,5S)-4α-methyl-1-phenyl-1,4,4α,5,6,7-hexahydrocyclopenta[f]indazol-5-yl]methyl}-1-pyridin-3-ylmethanesulfonamide]",1.1 nM
